The source of these data is PubChem BioAssay AID248 (DTP/NCI, 2004).

The assay concerns L1210 leukemia ip in BDF1 mice, survival T/C. As to the kind of experiment: NCI In Vivo Anticancer Drug Screen. Data for tumor model L1210 Leukemia (intraperitoneal) in B6D2F1 (BDF1) mice. The note with it: endpoint: mean survival time, higher = longer survival. Put shortly:
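Transplanted-tumor mice were given test agent; controls received vehicle only. Survival readings from the two groups were divided (treated over control).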

Setting [1] is: dose: 400.0 mg/kg/injection, schedule: Q01DX009 (ip), vehicle: saline.
Where [2] appears, read: dose: 100.0 mg/kg/injection, schedule: Q01DX009 (ip), vehicle: Klucel (hydroxypropylcellulose) (HPC).
The mark [3] stands for this setting: dose: 100.0 mg/kg/injection, schedule: Q04DX003 (ip), vehicle: Klucel (hydroxypropylcellulose) (HPC).
Setting [4] is: dose: 200.0 mg/kg/injection, schedule: Q01DX009 (ip), vehicle: Klucel (hydroxypropylcellulose) (HPC).
[5] abbreviates: dose: 200.0 mg/kg/injection, schedule: Q04DX003 (ip), vehicle: Klucel (hydroxypropylcellulose) (HPC).
Where [6] appears, read: dose: 400.0 mg/kg/injection, schedule: Q01DX009 (ip), vehicle: Klucel (hydroxypropylcellulose) (HPC).
Setting [7] is: dose: 400.0 mg/kg/injection, schedule: Q04DX003 (ip), vehicle: Klucel (hydroxypropylcellulose) (HPC).
Setting [8] is: dose: 50.0 mg/kg/injection, schedule: Q01DX001 (ip), vehicle: saline.
Setting [9] is: dose: 100.0 mg/kg/injection, schedule: Q01DX001 (ip), vehicle: saline.
Where [10] appears, read: dose: 200.0 mg/kg/injection, schedule: Q01DX001 (ip), vehicle: saline.
[11] abbreviates: dose: 400.0 mg/kg/injection, schedule: Q01DX001 (ip), vehicle: saline.
The mark [12] stands for this setting: dose: 100.0 mg/kg/injection, schedule: Q01DX009 (ip), vehicle: saline.
[13] abbreviates: dose: 200.0 mg/kg/injection, schedule: Q01DX009 (ip), vehicle: saline.
The mark [14] stands for this setting: dose: 100.0 mg/kg/injection, schedule: Q04DX002 (ip), vehicle: saline.
Setting [15] is: dose: 200.0 mg/kg/injection, schedule: Q04DX002 (ip), vehicle: saline.
The mark [16] stands for this setting: dose: 400.0 mg/kg/injection, schedule: Q04DX002 (ip), vehicle: saline.
Where [17] appears, read: dose: 100.0 mg/kg/injection, schedule: Q04DX003 (ip), vehicle: saline.
Setting [18] is: dose: 200.0 mg/kg/injection, schedule: Q04DX003 (ip), vehicle: saline.

Several values for one entry are separate records, joined by “and”; a condition that tells them apart may be missing. Identical values can stand only once. Inconclusive results and toxic doses are left out.

As to `CCCN(CCC)N=Nc1c(C(=O)OC)n[nH]c1C`, the T/C runs as follows: (dose: 50.0 mg/kg/injection, schedule: Q04DX003 (ip), vehicle: saline with Tween-80) 103 % of control; (dose: 100.0 mg/kg/injection, schedule: Q04DX003 (ip), vehicle: saline with Tween-80) 104 % of control and 109 % of control; (dose: 175.0 mg/kg/injection, schedule: Q01DX009 (ip), vehicle: saline) 124 % of control; (dose: 200.0 mg/kg/injection, schedule: Q04DX003 (ip), vehicle: saline with Tween-80) 104 % of control and 109 % of control; under setting [1], 96 % of control; (dose: 400.0 mg/kg/injection, schedule: Q04DX003 (ip), vehicle: saline with Tween-80) 102 % of control.

Take `CCC(=O)OC1CC2C3CCC4=CC(=O)CCC4(C)C3CCC2(C)C1OC(=O)CC` (stereo not given): the T/C reads like this: under setting [2], 98 % of control; under setting [3], 95 % of control; under setting [4], 98 % of control; under setting [5], 95 % of control; under setting [6], 97 % of control; under setting [7], 101 % of control.

Consider `O=C(O)CCC1COc2ccccc2O1` (stereo not given), for which the T/C under setting [8] is 100 % of control, the T/C under setting [9] is 108 % of control, the T/C under setting [10] is 114 % of control and the T/C under setting [11] is 100 % of control.

For the compound `Cc1cccnc1Nc1ncccc1C`, the T/C reads like this: (dose: 50.0 mg/kg/injection, schedule: Q01DX009 (ip), vehicle: saline) 100 % of control; under setting [12], 96 % of control; under setting [13], 103 % of control.

Turning to `CCC#CC(=O)OCCCCCC`, the T/C under setting [14] is 107 % of control, the T/C under setting [15] is 100 % of control and the T/C under setting [16] is 103 % of control.

On to `C=CCNC(=S)Nc1cccc([N+](=O)[O-])c1`, for which the T/C runs as follows: (dose: 50.0 mg/kg/injection, schedule: Q01DX001 (ip), vehicle: carboxymethylcellulose (CMC)) 111 % of control; (dose: 100.0 mg/kg/injection, schedule: Q01DX001 (ip), vehicle: carboxymethylcellulose (CMC)) 94 % of control; (dose: 200.0 mg/kg/injection, schedule: Q01DX001 (ip), vehicle: carboxymethylcellulose (CMC)) 94 % of control; (dose: 400.0 mg/kg/injection, schedule: Q01DX001 (ip), vehicle: carboxymethylcellulose (CMC)) 100 % of control.

In the case of `CCCc1c(N)nc(N)nc1C(=O)O`, the T/C (dose: 100.0 mg/kg/injection, schedule: Q01DX001 (ip), vehicle: Klucel (hydroxypropylcellulose) (HPC)) is 94 % of control; the T/C under setting [2] was 100 % of control; the T/C (dose: 200.0 mg/kg/injection, schedule: Q01DX001 (ip), vehicle: Klucel (hydroxypropylcellulose) (HPC)) is 94 % of control; the T/C under setting [4] was 109 % of control; the T/C (dose: 400.0 mg/kg/injection, schedule: Q01DX001 (ip), vehicle: Klucel (hydroxypropylcellulose) (HPC)) is 92 % of control; the T/C under setting [6] was 86 % of control.

`CN(C)c1ccc(/C=N/NC(=O)c2ccccc2NC(=O)C2CC2)cc1`: the T/C under setting [2] was 93 % of control, the T/C under setting [4] is 104 % of control and the T/C under setting [6] is 90 % of control.

On to `CCC(=O)OC1CCC2(C)C(=CCC3C2CCC2(C)C(C(C)CCCC(C)C)CCC32)C1` (stereo not given), for which the T/C was 91 % of control (dose: 100.0 mg/kg/injection, schedule: Q01DX001 (ip), vehicle: other) and 91 % of control (dose: 200.0 mg/kg/injection, schedule: Q01DX001 (ip), vehicle: other).

With `Cc1cccnc1C`, the T/C runs as follows: (dose: 10.0 mg/kg/injection, schedule: Q01DX009 (ip), vehicle: saline) 105 % of control; (dose: 20.0 mg/kg/injection, schedule: Q01DX009 (ip), vehicle: saline) 111 % of control; (dose: 30.0 mg/kg/injection, schedule: Q01DX009 (ip), vehicle: saline) 115 % of control; (dose: 40.0 mg/kg/injection, schedule: Q04DX003 (ip), vehicle: saline) 112 % of control; (dose: 80.0 mg/kg/injection, schedule: Q04DX003 (ip), vehicle: saline) 107 % of control; under setting [17], 100 % of control.

Consider `CC(C)(O)C(=O)NCNC(=O)C(C)(C)O`, for which the T/C is, setting by setting: under setting [2], 102 % of control; under setting [3], 103 % of control; under setting [4], 97 % of control; under setting [5], 103 % of control; under setting [6], 97 % of control; under setting [7], 106 % of control.

For the compound `Cc1cccc(OCCOC(=O)Nc2cccc(C(F)(F)F)c2)c1`, the T/C is, setting by setting: under setting [9], 104 % of control; under setting [12], 100 % of control and 87 % of control; under setting [14], 100 % of control and 101 % of control; under setting [17], 101 % of control; under setting [10], 106 % of control; under setting [13], 92 % of control and 87 % of control. Besides, the T/C under setting [15] was 100 % of control and 105 % of control; the T/C under setting [18] is 106 % of control; the T/C under setting [11] is 109 % of control; the T/C under setting [1] is 94 % of control; the T/C under setting [16] is 92 % of control and 97 % of control; the T/C (dose: 400.0 mg/kg/injection, schedule: Q04DX003 (ip), vehicle: saline) was 103 % of control.

Regarding `COc1ccc(C(=O)c2ccc(Br)s2)cc1`, the T/C under setting [2] was 94 % of control; the T/C under setting [3] is 97 % of control; the T/C under setting [4] was 97 % of control; the T/C under setting [5] is 97 % of control; the T/C under setting [6] is 95 % of control; the T/C under setting [7] was 96 % of control.

On to `O=C(CCCO)NCCS(=O)c1ccccc1` (stereo not given), for which the T/C reads like this: (dose: 100.0 mg/kg/injection, schedule: Q04DX002 (ip), vehicle: saline with Tween-80) 107 % of control; (dose: 200.0 mg/kg/injection, schedule: Q04DX002 (ip), vehicle: saline with Tween-80) 101 % of control; (dose: 400.0 mg/kg/injection, schedule: Q04DX002 (ip), vehicle: saline with Tween-80) 111 % of control.

Regarding `O=C(NC(=S)N1CC=CCC1)c1ccccc1`, the T/C was 97 % of control (dose: 100.0 mg/kg/injection, schedule: Q04DX002 (ip), vehicle: gum acacia); 100 % of control (dose: 200.0 mg/kg/injection, schedule: Q04DX002 (ip), vehicle: gum acacia); 93 % of control (dose: 400.0 mg/kg/injection, schedule: Q04DX002 (ip), vehicle: gum acacia).

With `CC(Cl)C(=O)NC(C)C(=O)O` (stereo not given), the T/C (dose: 12.5 mg/kg/injection, schedule: Q04DX002 (ip), vehicle: saline) was 97 % of control; the T/C (dose: 25.0 mg/kg/injection, schedule: Q04DX002 (ip), vehicle: saline) was 111 % of control; the T/C (dose: 50.0 mg/kg/injection, schedule: Q04DX002 (ip), vehicle: saline) was 97 % of control.

Take `O=C(O)C1(C(=O)O)CCC1.[NH2-].[NH2-].[Pt+2]`: the T/C is 97 % of control (dose: 2.0 mg/kg/injection, schedule: Q01DX009 (ip), vehicle: saline); 100 % of control (dose: 4.0 mg/kg/injection, schedule: Q01DX001 (ip), vehicle: saline); 100 % of control (dose: 4.0 mg/kg/injection, schedule: Q01DX009 (ip), vehicle: saline); 100 % of control (dose: 8.0 mg/kg/injection, schedule: Q01DX001 (ip), vehicle: saline); 108 % of control (dose: 8.0 mg/kg/injection, schedule: Q01DX009 (ip), vehicle: saline); 102 % of control (dose: 16.0 mg/kg/injection, schedule: Q01DX001 (ip), vehicle: saline). Besides, the T/C (dose: 16.0 mg/kg/injection, schedule: Q01DX009 (ip), vehicle: saline) is 119 % of control; the T/C (dose: 25.0 mg/kg/injection, schedule: Q04DX003 (ip), vehicle: saline) was 110 % of control and 113 % of control; the T/C (dose: 64.0 mg/kg/injection, schedule: Q01DX009 (ip), vehicle: saline) is 171 % of control; the T/C under setting [17] was 154 % of control and 176 % of control; the T/C (dose: 128.0 mg/kg/injection, schedule: Q01DX001 (ip), vehicle: saline) is 152 % of control; the T/C under setting [18] was 97 % of control and 105 % of control.

Regarding `O=[N+]([O-])c1cccc(/C=C\C=C\c2ccccc2)c1`, the T/C runs as follows: under setting [8], 100 % of control; under setting [9], 103 % of control; under setting [10], 103 % of control; under setting [11], 94 % of control.

Regarding `Cc1cc(C)c(CC(C)(CO)CO)c(C)c1CC(C)(CO)CO`, the T/C is, setting by setting: under setting [2], 107 % of control; under setting [4], 98 % of control; under setting [6], 96 % of control.
